What was measured:
[1] = xn = mol fraction of the nth substance listed; details: 94.9 kPa, Liquid, Vibrating tube method
[2] = refractive index (Na D-line) (dimensionless); xn = mol fraction of the nth substance listed; details: 94.9 kPa, Liquid, (Schmidt +Haensch) refractometer (Model DSR lambda)

C1COCCN1 [tetrahydro-1,4-oxazine] + CCCCCCCCCCO
Details | mass density, 293.15 K [kg/m3] | mass density, 303.15 K [kg/m3] | mass density, 313.15 K [kg/m3] | mass density, 323.15 K [kg/m3] | mass density, 333.15 K [kg/m3] | refractive index, 293.15 K | refractive index, 303.15 K | refractive index, 313.15 K | refractive index, 323.15 K | refractive index, 333.15 K
[1], x1 = 0.0959 | 842.65 | 835.47 | 828.35 | 821.08 | 813.99 | – | – | – | – | –
[1], x1 = 0.1972 | 856.26 | 849.05 | 841.76 | 834.65 | 827.15 | – | – | – | – | –
[1], x1 = 0.2983 | 870.74 | 863.32 | 855.74 | 848.36 | 840.7 | – | – | – | – | –
[1], x1 = 0.3997 | 886.54 | 878.86 | 870.94 | 863.25 | 855.26 | – | – | – | – | –
[1], x1 = 0.4984 | 902.71 | 894.8 | 886.64 | 878.61 | 870.39 | – | – | – | – | –
[1], x1 = 0.5901 | 918.62 | 910.46 | 902.16 | 894.03 | 885.58 | – | – | – | – | –
[1], x1 = 0.6748 | 933.78 | 925.53 | 916.99 | 908.75 | 900.13 | – | – | – | – | –
[1], x1 = 0.7975 | 957.46 | 948.96 | 940.35 | 931.54 | 922.67 | – | – | – | – | –
[1], x1 = 0.9053 | 980.12 | 971.33 | 961.51 | 952.35 | 943.05 | – | – | – | – | –
[1], x1 = 1 | 999.54 | 989.89 | 979.82 | 969.78 | 959.74 | – | – | – | – | –
[2], x1 = 0.0959 | – | – | – | – | – | 1.43851 | 1.43425 | 1.43051 | 1.42665 | 1.42296
[2], x1 = 0.1971 | – | – | – | – | – | 1.44011 | 1.43584 | 1.43195 | 1.42808 | 1.42408
[2], x1 = 0.2983 | – | – | – | – | – | 1.44177 | 1.4374 | 1.43335 | 1.42935 | 1.4252
[2], x1 = 0.3997 | – | – | – | – | – | 1.44353 | 1.43915 | 1.43498 | 1.43086 | 1.42655
[2], x1 = 0.4984 | – | – | – | – | – | 1.44523 | 1.4408 | 1.43652 | 1.43224 | 1.4278
[2], x1 = 0.5901 | – | – | – | – | – | 1.44686 | 1.44235 | 1.43799 | 1.43378 | 1.42913
[2], x1 = 0.6748 | – | – | – | – | – | 1.44835 | 1.44395 | 1.43952 | 1.43524 | 1.4304
[2], x1 = 0.7975 | – | – | – | – | – | 1.45055 | 1.44625 | 1.4419 | 1.43735 | 1.43224
[2], x1 = 0.9053 | – | – | – | – | – | 1.45253 | 1.44834 | 1.44365 | 1.43915 | 1.43382
[2], x1 = 1 | – | – | – | – | – | 1.45453 | 1.45031 | 1.44574 | 1.44113 | 1.43562

— the NIST ThermoML archive (doi:10.1016/j.tca.2016.12.010)
